From ChEMBL document CHEMBL1201862, “PubChem BioAssay data set” (2004)
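1) Cells in 96-well plates. 2) Compound, 48 h, 5 concentrations. 3) Linear interpolation between surrounding doses. 4) Unreached endpoint = highest concentration. GI50 marks 50% less growth.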 Calls of active or inactive are those of the source. Cut-off read from the data, not from the text of the source: active = GI50 up to about 1.1 µM and inactive = higher.

What was measured:
Experiment in all cases: growth of human tumour cells (NCI), 48 h
NCI-H460 = tested on: NCI-H460
SNB-75 = tested on: SNB-75
HL-60 = tested on: HL-60
UO-31 = tested on: UO-31
SW-620 = tested on: SW-620
SR = tested on: SR
MOLT-4 = tested on: MOLT-4
HOP-92 = tested on: HOP-92
SN12C = tested on: SN12C
SNB-78 = tested on: SNB-78
SF-268 = tested on: SF-268
CCRF-CEM = tested on: CCRF-CEM
Malme-3M = tested on: Malme-3M
SF-539 = tested on: SF-539
SF-295 = tested on: SF-295
NCI-H522 = tested on: NCI-H522
MCF7 = tested on: MCF7
U-251 = tested on: U-251
DU-145 = tested on: DU-145
MDA-MB-231 = tested on: MDA-MB-231

Row | SMILES | GI50 (NCI-H460) | GI50 (SNB-75) | GI50 (HL-60) | GI50 (UO-31) | GI50 (SW-620) | GI50 (SR) | GI50 (MOLT-4) | GI50 (HOP-92) | GI50 (SN12C) | GI50 (SNB-78) | GI50 (SF-268) | GI50 (CCRF-CEM) | GI50 (Malme-3M) | GI50 (SF-539) | GI50 (SF-295) | GI50 (NCI-H522) | GI50 (MCF7) | GI50 (U-251) | GI50 (DU-145) | GI50 (MDA-MB-231)
1 | COc1ccc(-c2cc(O)c3ccc(F)cc3n2)cc1 | > 100 µM (inactive) | > 100 µM (inactive) | > 100 µM (inactive) | > 100 µM (inactive) | > 100 µM (inactive) | > 100 µM (inactive) | > 100 µM (inactive) | > 100 µM (inactive) | > 100 µM (inactive) | > 100 µM (inactive) | 23.5 µM (inactive) | > 100 µM (inactive) | > 100 µM (inactive) | > 100 µM (inactive) | > 100 µM (inactive) | > 100 µM (inactive) | – | – | – | –
2 | CCN(CCCl)c1cc(CN(C)C)cc(NC(=O)c2ccc(C(=O)Nc3cc(CN(C)C)cc(N(CC)CCCl)c3)cc2)c1 | < 0.0211 µM (active) | 0.114 µM (active) | < 0.01 µM (active) | 5.21 µM (inactive) | 0.149 µM (active) | 0.0228 µM (active) | 0.0183 µM (active) | 0.184 µM (active) | 0.0502 µM (active) | – | 0.0502 µM (active) | 0.0156 µM (active) | 0.292 µM (active) | 0.0762 µM (active) | 0.182 µM (active) | 0.0231 µM (active) | 0.017 µM (active) | 0.0723 µM (active) | 0.504 µM (active) | 0.323 µM (active)
3 | Cc1cc(NCCCCCCCCNc2cc(C)nc3cc(N(C)C)ccc23)c2ccc(N(C)C)cc2n1 | 3.01 µM (inactive) | – | 0.711 µM (active) | 75.5 µM (inactive) | 6.81 µM (inactive) | 2.82 µM (inactive) | 2 µM (inactive) | 2.58 µM (inactive) | 1.64 µM (inactive) | 5.47 µM (inactive) | 3.48 µM (inactive) | 5.01 µM (inactive) | – | 3.23 µM (inactive) | 8.65 µM (inactive) | 2.75 µM (inactive) | – | 1.56 µM (inactive) | – | –
4 | O=C(Cc1nc2c3c(ccc2nc1O)C(=O)c1ccccc1C3=O)C(=O)Nc1ccccc1[N+](=O)[O-] | 31.9 µM (inactive) | – | 14.5 µM (inactive) | 27.5 µM (inactive) | 12.3 µM (inactive) | 11.7 µM (inactive) | 4.22 µM (inactive) | 20.7 µM (inactive) | > 10 µM (inactive) | 4.22 µM (inactive) | 14.4 µM (inactive) | 2.51 µM (inactive) | 19.1 µM (inactive) | 17.6 µM (inactive) | > 10 µM (inactive) | 5.27 µM (inactive) | – | 17.7 µM (inactive) | – | –
5 | NNC(=O)C(=O)N/N=C1\CCC(=O)CC1C(=O)CCC(=O)Nc1ccc(Cl)cc1 (centres undefined) | > 100 µM (inactive) | 39.4 µM (inactive) | > 100 µM (inactive) | > 100 µM (inactive) | > 100 µM (inactive) | – | > 100 µM (inactive) | – | > 100 µM (inactive) | > 100 µM (inactive) | > 100 µM (inactive) | > 100 µM (inactive) | > 100 µM (inactive) | > 100 µM (inactive) | > 100 µM (inactive) | – | – | > 100 µM (inactive) | – | –
6 | Clc1cccc2c1OCC1C(c3ccccc3)=NN(c3ccccc3)C21 (centres undefined) | 59.4 µM (inactive) | > 100 µM (inactive) | 31.8 µM (inactive) | 60.8 µM (inactive) | > 100 µM (inactive) | – | 35.2 µM (inactive) | 64.4 µM (inactive) | – | 72.9 µM (inactive) | 63.2 µM (inactive) | 32.2 µM (inactive) | > 100 µM (inactive) | – | 72.1 µM (inactive) | 45.4 µM (inactive) | – | 38.9 µM (inactive) | – | –
7 | CC1(C)[C@H]2CC[C@](C)(C2)[C@]1(S)Cc1ccccn1 | 27.2 µM (inactive) | 23.9 µM (inactive) | 11.2 µM (inactive) | > 100 µM (inactive) | 36.3 µM (inactive) | 18.1 µM (inactive) | 15.3 µM (inactive) | 34.5 µM (inactive) | 56.8 µM (inactive) | – | 39.7 µM (inactive) | 5 µM (inactive) | 46.1 µM (inactive) | > 100 µM (inactive) | 26.4 µM (inactive) | 65.9 µM (inactive) | 32.5 µM (inactive) | 14.4 µM (inactive) | 22.4 µM (inactive) | 37 µM (inactive)
8 | FC(F)(F)c1cccc(C2SCc3nc4ccccc4n32)c1 (centres undefined) | – | 29.8 µM (inactive) | 5.75 µM (inactive) | > 100 µM (inactive) | > 100 µM (inactive) | 44 µM (inactive) | 41.4 µM (inactive) | 2.41 µM (inactive) | > 100 µM (inactive) | > 100 µM (inactive) | 90.6 µM (inactive) | 32.8 µM (inactive) | > 100 µM (inactive) | 26.6 µM (inactive) | 33.9 µM (inactive) | 17.6 µM (inactive) | – | 62.7 µM (inactive) | – | –
9 | O=C(c1ccncc1)n1nc(-c2ccccc2)c(/N=N/c2ccccc2[N+](=O)[O-])c1-c1ccccc1 | – | 15.7 µM (inactive) | 46.2 µM (inactive) | 9.62 µM (inactive) | 67.3 µM (inactive) | 36.6 µM (inactive) | 38.9 µM (inactive) | 35.6 µM (inactive) | > 100 µM (inactive) | 65.3 µM (inactive) | 82 µM (inactive) | 59.3 µM (inactive) | > 100 µM (inactive) | 50.8 µM (inactive) | 32.1 µM (inactive) | 56 µM (inactive) | – | – | – | –
